Measurements reported in patent publication US20230331777A1, “NOVEL PEPTOID COMPOUNDS THAT BIND TO CELL RECEPTOR ACE2 AND PREVENT VIRUS ENTRY INTO CELLS” (priority 2020, published 2023).
Starred links: 1 amine or outer side, 2 acyl side, 3 side chain; linkers in the order of their positions; H or OH if unused. Positions of bridges follow the written chain, without caps; N, C: chain ends. Non-standard residues stand in square brackets, D forms with d. Residues, ends and D or L forms follow the SMILES beside them. Chains are numbered I, II in the order given. N(4-MeOBn)Gly = COc1ccc(CNCC(=O)O)cc1; N((CH2)3OiPr)Gly = CC(C)OCCCNCC(=O)O; X1 = CC(c1ccccc1)N(CC(=O)[*:2])[*:1]; NAllylGly = C=CCNCC(=O)O; Nleu = CC(C)CNCC(=O)O; Nme = COCCNCC(=O)O

Tested on: SARS-CoV-2 D614G pseudovirus
Format: cell-based, human H1299 cells

Row | SMILES | SARS-CoV-2 mutant pseudovirus infection
1 | COCCN(CC(=O)NC(CCCCN)C(=O)NC(CCSC)C(=O)NCCCCC(NC(=O)C(CCSC)NC(=O)C(CCCCN)NC(=O)CN(CCOC)C(=O)CN(CC(C)C)C(=O)CN(CC(C)C)C(=O)CN(CCCOC(C)C)C(=O)CN(Cc1ccc(OC)cc1)C(=O)CNCc1ccc(OC)cc1)C(N)=O)C(=O)CN(CC(C)C)C(=O)CN(CC(C)C)C(=O)CN(CCCOC(C)C)C(=O)CN(Cc1ccc(OC)cc1)C(=O)CNCc1ccc(OC)cc1 (centres unmarked) [ACE2P2D1] (I: H-[N(4-MeOBn)Gly][N(4-MeOBn)Gly][N((CH2)3OiPr)Gly][Nleu][Nleu][Nme]KMK-NH2 / II: H-[N(4-MeOBn)Gly][N(4-MeOBn)Gly][N((CH2)3OiPr)Gly][Nleu][Nleu][Nme]KM; amide I:9-II:C; configuration not given here) | effective in inhibiting SARS-CoV-2 mutant pseudovirus infection
2 | C=CCN(CC(=O)N(CC(=O)NC(CCCCN)C(=O)NC(CCSC)C(=O)NCCCCC(NC(=O)C(CCSC)NC(=O)C(CCCCN)NC(=O)CN(C(=O)CN(CC=C)C(=O)CN(Cc1ccc(OC)cc1)C(=O)CN(C(=O)CN(CCOC)C(=O)CNCC(C)C)C(C)c1ccccc1)C(C)c1ccccc1)C(N)=O)C(C)c1ccccc1)C(=O)CN(Cc1ccc(OC)cc1)C(=O)CN(C(=O)CN(CCOC)C(=O)CNCC(C)C)C(C)c1ccccc1 (centres unmarked) [ACE2P1D1] (I: H-[Nleu][Nme][X1][N(4-MeOBn)Gly][NAllylGly][X1]KMK-NH2 / II: H-[Nleu][Nme][X1][N(4-MeOBn)Gly][NAllylGly][X1]KM; amide I:9-II:C; configuration not given here) | effective in inhibiting SARS-CoV-2 mutant pseudovirus infection
